Literature values in patent US20220295833A1, “SWEETENER BLENDS WITH IMPROVED TASTE” (The Coca-Cola Company, priority 2019, published 2022).

aqueous solubility: about 0.8 wt %
Compound: C=C1C[C@@]23CC[C@H]4[C@@](C)(CCC[C@@]4(C)C(=O)O[C@@H]4O[C@H](CO)[C@@H](O)[C@H](O)[C@H]4O)[C@@H]2CC[C@]1(O[C@@H]1O[C@H](CO)[C@@H](O)[C@H](O[C@@H]2O[C@H](CO)[C@@H](O)[C@H](O)[C@H]2O)[C@H]1O[C@@H]1O[C@H](CO)[C@@H](O)[C@H](O)[C@H]1O)C3 [Rebaudioside A]
